Results reported in PMC6216040, “Repurposing of an old drug: In vitro and in vivo efficacies of buparvaquone against Echinococcus multilocularis” (International Journal for Parasitology: Drugs and Drug …, 2018).
Where two headings read alike, the source gives them in different places.

Tested on: E. multilocularis metacestodes
Assay: PGI-assay: drug-induced damage on in vitro cultured metacestodes (Pathogen Box screening cascade and EC50)
Assay type: cell-based, Echinococcus multilocularis
Details: for PGI release, % of the Tx-100 control, 5d / PGI release, % of the Tx-100 control, 12d / cytotoxicity at 10 µM: 10 µM, singlets; for PGI release, % of Tx-100 control, average, 5d / PGI release, % of Tx-100 control, average, 12d: confirmatory screening at 10 µM in triplicates, values as % of Tx-100 control; for cytotoxicity at 10 µM: Echinococcus multilocularis
[1] = 120 h, 5 days of incubation, read-out: PGI release, % of the Tx-100 control, 5d
[2] = 288 h, 12 days of incubation, read-out: PGI release, % of the Tx-100 control, 12d

| SMILES | PGI release, % of the Tx-100 control, 5d (5 days of incubation) [%] | PGI release, % of the Tx-100 control, 12d (12 days of incubation) [%] | PGI release, % of Tx-100 control, average, 5d (5 days of incubation) [%] | PGI release, % of Tx-100 control, average, 12d (12 days of incubation) [%] | cytotoxicity at 10 µM [1] [%] | cytotoxicity at 10 µM [2] [%] |
| --- | --- | --- | --- | --- | --- | --- |
| O=C(c1n[nH]c2c1CCCC2)N1CCN(Cc2ccc3c(c2)OCO3)CC1 [MMV676389] | 1.07 | 3.62 |  |  |  |  |
| O=C(Nc1cccnc1)c1c(O)c2cccc3c2n(c1=O)CC3 [MMV676395] | -2.29 | 0.06 |  |  |  |  |
| CCS(=O)(=O)N(Cc1ccco1)Cc1cc2ccc(C)cc2[nH]c1=O [MMV676398] | -0.33 | 4.91 |  |  |  |  |
| c1coc(CNc2nc(N3CCCCC3)nc3ccccc23)c1 [MMV676401] | -3.33 | 41.40 | -0.0357 | -0.23 |  |  |
| CC(C)n1ncc2c(C(=O)NCC(c3cccs3)N3CCOCC3)cc(-c3ccccc3)nc21 (stereo not drawn) [MMV676406] | 0.95 | 2.38 |  |  |  |  |
| O=C(COc1cccc(F)c1)Nc1nc(-c2ccccn2)cs1 [MMV676409] | -3.57 | -0.58 |  |  |  |  |
| CC(Oc1ccccc1)C(=O)Nc1nc(-c2ccccn2)cs1 (stereo not drawn) [MMV676411] | 0.12 | 0.11 |  |  |  |  |
| N#Cc1nc(-c2ccccc2)oc1S(=O)(=O)c1ccc(Cl)cc1 [MMV676412] | 0.33 | 0.62 |  |  |  |  |
| Cc1ccc(NC(=O)CC2COc3ccccc3O2)cc1Cl (stereo not drawn) [MMV676431] | -2.82 | 0.24 |  |  |  |  |
| Cc1ccc2nc(Cl)c(CNCc3cccs3)cc2c1 [MMV676439] | -0.82 | 3.19 |  |  |  |  |
| CC(C)c1ncc(-c2ccncc2)c(C2CCC(CNC(=O)c3cccnc3)CC2)n1 (stereo not drawn) [MMV676442] | -0.58 | 4.83 |  |  |  |  |
| O=C(NC1CCCCC1)N1CCN(Cc2ccc3c(c2)OCO3)CC1 [MMV676444] | -3.25 | 1.66 |  |  |  |  |
| CCCn1c(CNc2ccccc2O)nc2ccccc21 [MMV676445] | -1.26 | 2.30 |  |  |  |  |
| CCc1nc2ccccc2n1CC(O)COc1cc(C)ccc1Cl (stereo not drawn) [MMV676449] | 0.81 | 2.81 |  |  |  |  |
| CCOC(=O)c1cc(-c2csc(Nc3c(C)cc(C)cc3C)n2)on1 [MMV676461] | 0.19 | -0.25 |  |  |  |  |
| NC(CC(=O)c1ccc(Cl)cc1Cl)C(Cl)(Cl)Cl (stereo not drawn) [MMV676468] | -0.27 | -0.82 |  |  |  |  |
| CCOc1ccc(OCC(=O)Nc2cc(C)cc(C)c2)cc1 [MMV676470] | -0.69 | -0.73 |  |  |  |  |
| COc1cccc(OC)c1C(=O)Nc1ccc(Cl)c(-c2nc3ccccc3s2)c1 [MMV676472] | 5.75 | 51.73 | 0.98 | 2.19 |  |  |
| COc1ccccc1OCCCCn1c(C2CC2)nc2ccccc21 [MMV676474] | 1.01 | 0.22 |  |  |  |  |
| Cc1cc(C)cc(COc2ccc3c(C)c(CCC(=O)O)c(=O)oc3c2C)c1 [MMV676476] | 0.11 | 10.97 |  |  |  |  |
| CCc1c(C)nc(-n2nc(C)cc2NC(=O)c2ccccc2SC)[nH]c1=O [MMV676477] | -3.90 | 30.66 | -0.18 | 2.18 |  |  |
| O=C(C1CCN(c2nnc(-n3cccc3)s2)CC1)N1CCC(Cc2ccccc2)CC1 [MMV676478] | -4.04 | 0.80 |  |  |  |  |
| COC(=O)c1c(NC(=O)c2cc3ccccc3oc2=O)sc2c1CCN(Cc1ccccc1)C2 [MMV676480] | -0.80 | 1.41 |  |  |  |  |
| O=C(Nc1n[nH]c(=S)s1)c1cc(Br)ccc1Cl [MMV676492] | 5.74 | 1.03 |  |  |  |  |
| O=C(Nc1nnc(-c2ccc(Cl)s2)o1)c1ccc(Cl)s1 [MMV676501] | 1.15 | 0.52 |  |  |  |  |
| Cc1ccc2oc(-c3cc(NC(=O)Cc4ccccc4)ccc3Cl)nc2c1 [MMV676509] | -0.17 | 0.19 |  |  |  |  |
| O=C(Nc1nc(-c2ccccn2)cs1)c1cncn1-c1ccccc1 [MMV676512] | 0.19 | 0.30 |  |  |  |  |

| SMILES | PGI release, % of the Tx-100 control, 5d (5 days of incubation) [%] | PGI release, % of the Tx-100 control, 12d (12 days of incubation) [%] | PGI release, % of Tx-100 control, average, 5d (5 days of incubation) [%] | PGI release, % of Tx-100 control, average, 12d (12 days of incubation) [%] | cytotoxicity at 10 µM [1] [%] | cytotoxicity at 10 µM [2] [%] |
| --- | --- | --- | --- | --- | --- | --- |
| O=C(c1cc2ccccc2o1)N1CCN(Cc2ccc3c(c2)OCO3)CC1 [MMV676520] | -0.72 | -0.39 |  |  |  |  |
| Nc1cccnc1Nc1ccc(Cl)cc1 [MMV676524] | 0.13 | 0.29 |  |  |  |  |
| COc1ccc(-c2cc(NC(=O)c3ccc(F)cc3Cl)ccc2OC)cc1 [MMV676526] | 1.97 | -2.37 |  |  |  |  |
| Cc1cccc(NC(=O)c2cc(S(=O)(=O)N(C)c3ccc(F)cc3)ccc2Cl)n1 [MMV676528] | -0.45 | 0.71 |  |  |  |  |
| COCC(C)NC(=O)CSc1ncnc2sc(-c3ccccc3)cc12 (stereo not drawn) [MMV676536] | 3.74 | 50.91 | 0.53 | 0.42 |  |  |
| O=C(NCCc1c[nH]c2ccccc12)c1cc2ccccc2oc1=O [MMV676539] | 0.63 | 17.31 |  |  |  |  |
| COc1ccc(Nc2ccccc2NC(=O)c2ccc(=O)[nH]c2)cc1 [MMV676554] | 0.17 | 3.85 |  |  |  |  |
| Cc1nnc(NCc2cccc(Cl)c2)c2ccccc12 [MMV676555] | -3.14 | 1.45 |  |  |  |  |
| CC1=NN(c2nc3ccccc3s2)C(=O)C1Cc1cccc2ccccc12 (stereo not drawn) [MMV676558] | 13.65 | 78.65 | -0.26 | 0.35 |  |  |
| COc1ccc(-c2nc(-c3cccc(NC(=O)Cc4ccc(F)cc4)c3)no2)cc1OC [MMV676571] | -1.41 | 1.58 |  |  |  |  |
| O=C(NC1=NCCS1)c1sc2cc(F)ccc2c1Cl [MMV676584] | -1.36 | 1.53 |  |  |  |  |
| Nc1c2c(nc3sc4c(c13)CCCC4)CCCC2 [MMV676588] | -0.72 | 10.95 |  |  |  |  |
| O=C(CCC1CCCCC1)Nc1cccc(-c2nnc(-c3ccco3)o2)c1 [MMV676589] | -1.81 | 2.20 |  |  |  |  |
| CCCn1nnc(NC(=O)COc2ccc(C3CCCCC3)cc2)n1 [MMV676597] | 0.61 | 0.33 |  |  |  |  |
| CC(C)(C)n1nc(Cc2cccc3ccccc23)c2c(N)ncnc21 [MMV676599] | -0.93 | -0.99 |  |  |  |  |
| CO[C@@H](C(=O)N1Cc2n[nH]c(NC(=O)c3ccc(N4CCN(C)CC4)cc3)c2C1)c1ccccc1 [MMV676600, Danusertib, reference compound] |  |  |  |  | -0.38 | -0.2 |
| CNC(=O)c1nn(C)c2c1C(C)(C)Cc1cnc(Nc3ccc(N4CCN(C)CC4)cc3)nc1-2 [MMV676602] | -1.52 | 120.02 | 0.52 | 12.12 |  |  |
| C[C@H]1COC2(CCN(c3nc(=O)c4cc(C(F)(F)F)cc([N+](=O)[O-])c4s3)CC2)O1 [MMV676603] | -4.72 | 4.80 |  |  |  |  |
| Cc1ncc(-c2ccnc(Nc3ccc(S(C)(=O)=O)cc3)n2)n1C(C)C [MMV676604] | -0.0262 | 0.36 |  |  |  |  |
| C[C@]1(O)C[C@@H](c2nc(-c3ccc4ccc(-c5ccccc5)nc4c3)c3c(N)nccn32)C1 [MMV676605, Linsitinib, reference compound] |  |  |  |  | -0.48 | 0.47 |
| O=C(c1ccc(NCCO)cc1)C1C[C@H]1c1ccc(Cl)cc1 (stereo partly drawn) [MMV676877] | 0.56 | -0.18 |  |  |  |  |
| CCn1cnc2c(Nc3cc(F)cc(F)c3)nc(C#N)nc21 [MMV676881] | 0.06 | -0.62 |  |  |  |  |
| NC(=O)c1cc(-c2ccsc2)ccc1OCCOc1ccccc1 [MMV687138] | -3.72 | 0.14 |  |  |  |  |
| CCCCS(=O)(=O)Nc1ccc2cnn(C)c2c1 [MMV687145] | -0.86 | -2.20 |  |  |  |  |
| Cc1cc(C)c2cc(C(=O)NC3CCCCCCC3)[nH]c2c1 [MMV687146] | -4.26 | -3.34 |  |  |  |  |
| COc1ccc(Cn2cnc3c(-c4ccco4)nc(Cl)nc32)cc1 [MMV687170] | 0.26 | -3.06 |  |  |  |  |
| O=C(C1CCN(c2cc(-n3cccc3)ncn2)CC1)N1CCc2ccccc2C1 [MMV687172] | 1.69 | -1.50 |  |  |  |  |
